Earlier results as cited in patent publication US10391093B2, “Therapeutic compounds” (Arizona Board of Regents, A Body Corporate of the State of …, priority 2011, dated 2019).
pEC50, pKd: −log10 of the molar value.

Key:
[1] = system: hRXR; details: Caco-2 cells
[2] = biological target: hRXR; details: Caco-2 cells; remark: listed apart in the source
[3] = biological target: hRXRβ (Homo sapiens, UniProt P28702); details: read-out: EC50 for the hRXRβ isoform
Sequence of hRXRβ (P28702 whole entry, canonical isoform): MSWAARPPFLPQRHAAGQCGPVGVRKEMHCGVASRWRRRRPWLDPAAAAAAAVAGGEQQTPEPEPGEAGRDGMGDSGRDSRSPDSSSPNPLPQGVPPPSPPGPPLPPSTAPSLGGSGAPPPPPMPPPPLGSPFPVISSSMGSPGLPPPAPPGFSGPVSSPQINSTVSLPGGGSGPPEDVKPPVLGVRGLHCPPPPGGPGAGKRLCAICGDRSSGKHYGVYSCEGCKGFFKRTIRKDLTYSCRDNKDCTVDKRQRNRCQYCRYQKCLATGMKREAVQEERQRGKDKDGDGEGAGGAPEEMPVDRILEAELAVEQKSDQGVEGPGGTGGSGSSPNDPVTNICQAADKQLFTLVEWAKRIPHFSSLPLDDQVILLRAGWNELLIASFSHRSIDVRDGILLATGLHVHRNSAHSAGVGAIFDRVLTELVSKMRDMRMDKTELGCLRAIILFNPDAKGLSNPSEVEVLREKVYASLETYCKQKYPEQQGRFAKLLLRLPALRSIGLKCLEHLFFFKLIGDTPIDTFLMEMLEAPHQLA

Row | SMILES | pEC50 [1] | pKd [2] | pEC50 [3]
1 | C=C(c1ccc(C(=O)O)c(F)c1)c1cc2c(cc1C)C(C)(C)CCC2(C)C [Compound 3] | 7.37 | 7.92 | 
2 | Cc1cc2c(cc1-c1cc(/C=C/C(=O)O)ccc1O)C(C)(C)CCC2(C)C [CD3254] |  |  | ~8.00
